Structures are written as SMILES. Bounds are passed on as bounds.

For this experiment, the target named is T1, CCXCKR2 receptor (Homo sapiens, UniProt P25106).
T1 construct: expressed in transfected cells; host or cells: MDA-MB-435S transfected with pcDNA3.1(+)-hRDC1 and/or MCF-7 (endogenous receptor)
T1 sequence (P25106 whole entry): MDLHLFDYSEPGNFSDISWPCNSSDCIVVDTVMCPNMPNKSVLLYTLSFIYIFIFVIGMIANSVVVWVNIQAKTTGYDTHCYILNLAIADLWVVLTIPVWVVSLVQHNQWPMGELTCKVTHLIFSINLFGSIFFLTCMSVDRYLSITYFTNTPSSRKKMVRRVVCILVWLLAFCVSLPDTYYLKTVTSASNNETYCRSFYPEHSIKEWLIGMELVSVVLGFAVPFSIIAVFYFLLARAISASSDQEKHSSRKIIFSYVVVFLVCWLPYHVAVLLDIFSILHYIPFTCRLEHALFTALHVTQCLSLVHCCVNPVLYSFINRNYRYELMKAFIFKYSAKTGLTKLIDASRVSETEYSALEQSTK
Put plainly: Displacement of 125I-labeled SDF-1 from the CCXCKR2 receptor on MCF-7 and/or CCXCKR2-transfected MDA-MB-435S cells (radioligand binding, filtration). The following applies: 125I SDF-1, 3 hr at 4° C., MCF-7 and/or MDA-MB-435S cells; read-out: Activity (concentration displacing at least 50% of the SDF-1 from the CCXCKR2 receptor). On the technique in general: Loss of bound radioactivity is the signal in a displacement assay; it reports binding, not function.
With `O=C(c1ccc(Cl)nc1)c1cn(Cc2cccc(Cl)c2)c2ccccc2c1=O` [Example 236], the IC50 lay in the range of 500 to 20000 nM.

Consider `Cc1ccc(C(=O)c2cn(Cc3cccc(Br)n3)c3ccccc3c2=O)cn1` [Example 220], for which the IC50 is below 100 nM.

Consider `COc1ccc(C(=O)c2cn(Cc3cccc(Br)n3)c3ccccc3c2=O)cc1C1OCCCO1` [Example 136], for which the IC50 is below 100 nM.

Turning to `O=C(c1ccccc1C1OCCCO1)c1cn(Cc2cccc(Br)n2)c2ccccc2c1=O` [Example 126], the IC50 was below 100 nM.

On to `Cc1cc(C(=O)c2cn(C(C)c3cccc(Br)n3)c3ccccc3c2=O)cnc1C` (stereo not shown) [Example 84], for which the IC50 is 500 to 20000 nM.

Turning to `O=C(c1ccc2c(n1)CCCC2)c1cn(Cc2cccc(Br)n2)c2ccccc2c1=O` [Example 89], the IC50 is below 100 nM.

`COc1ccc(C(=O)c2cn(Cc3cccc(Br)n3)c3ccccc3c2=O)cc1OC` [Example 140]: the IC50 was below 100 nM.

Regarding `COc1ccc(C(=O)c2cn(Cc3cccc(C)n3)c3ccccc3c2=O)cc1C` [Example 156], the IC50 was below 100 nM.

`CCc1ccc(C(=O)c2cn(Cc3cccc(Br)n3)c3ccccc3c2=O)cn1` [Example 154]: the IC50 was below 100 nM.

Take `CNC(=O)c1ccccc1C(=O)c1cn(Cc2cccc(Br)n2)c2ccccc2c1=O` [Example 169]: the IC50 was in the range of 500 to 20000 nM.

(Values after patent US7557213B2, “Substituted quinolones and methods of use” (ChemoCentryx, Inc., priority 2005, dated 2009).)
